Measured values taken from patent US6635635B2, “Benzothiadiazine compounds” (Les Laboratoires Servier, priority 2000, dated 2003).

How the values were obtained:
AMPA receptor = assay: Study of excitatory fluxes induced by AMPA in Xenopus oocytes (2-electrode voltage-clamp); format: cell-based; details: Xenopus oocytes injected with poly(A+) mRNA from rat cerebral cortex; AMPA 10 μM; 20-24° C.
Description: Study of Excitatory Fluxes Induced by AMPA in Xenopus oocytes
mRNAs are prepared from cerebral cortex of male Wistar rat by the guanidium thiocyanate/phenol/chloroform method. The poly (A^+) mRNAs are isolated by chromatography on oligo-dT cellulose and injected with 50 ng per oocyte. The oocytes are left for 2 to 3 days' incubation at 18° C. to enable expression of the receptors and are then stored at 8-10° C.
Electrophysiological recording is carried out in a Plexiglass® chamber at 20-24° C. in an OR2 medium (J. Exp. Zool., 1973, 184, 321-334) by the 2-electrode “voltage-clamp” method, with a 3rd electrode being placed in the bath to serve as reference.
All the compounds are administered via the incubation medium and the electric current is measured at the end of the period of administration. AMPA is used in a concentration of 10 μM. For each compound studied, there is determined the concentration that doubles (EC2X) or quintuples (EC5X) the intensity of the flux induced by AMPA alone (5 to 50 nA).

melting point [°C]	Structure (SMILES)	EC2X (concentration that doubles the intensity of the flux induced by AMPA alone) (AMPA receptor) [µM]
157	O=C(Oc1ccc2c(c1)S(=O)(=O)NC1CCCN21)C1CCCCC1 (stereo not drawn) [Example 14, 5,5-Dioxo-2,3,3a,4-tetrahydro-1H-pyrrolo[2,1-c][1,2,4]-benzothiadiazin-7-yl cyclohexanecarboxylate]	–
148 to 150	O=C(Oc1ccc2c(c1)S(=O)(=O)NC1CCCN21)C1CCCC1 (stereo not drawn) [Example 16, 5,5-Dioxo-2,3,3a,4-tetrahydro-1H-pyrrolo[2,1-c][1,2,4]-benzothiadiazin-7-yl cyclopentanecarboxylate]	–
166 to 170	O=C(Oc1ccc2c(c1)S(=O)(=O)NC1CCCN21)C1CCC1 (stereo not drawn) [Example 17, 5,5-Dioxo-2,3,3a,4-tetrahydro-1H-pyrrolo[2,1-c][1,2,4]-benzothiadiazin-7-yl cyclobutanecarboxylate]	–
169 to 171	O=C(Oc1ccc2c(c1)S(=O)(=O)NC1CCCN21)C1CC1 (stereo not drawn) [Example 18, 5,5-Dioxo-2,3,3a,4-tetrahydro-1H-pyrrolo[2,1-c][1,2,4]-benzothiadiazin-7-yl cyclopropanecarboxylate]	–
208 to 212	O=C(Oc1ccc2c(c1)S(=O)(=O)NC1CCCN21)c1ccsc1 (stereo not drawn) [Example 33, 5,5-Dioxo-2,3,3a,4-tetrahydro-1H-pyrrolo[2,1-c][1,2,4]-benzothiadiazin-7-yl 3-thiophenecarboxylate]	–
185 to 187	O=C(Oc1ccc2c(c1)S(=O)(=O)NC1CCCN21)c1ccoc1 (stereo not drawn) [Example 35, 5,5-Dioxo-2,3,3a,4-tetrahydro-1H-pyrrolo[2,1-c][1,2,4]-benzothiadiazin-7-yl 3-furancarboxylate]	–

Second part, the compound before the results:

Structure (SMILES)	melting point [°C]	EC2X (concentration that doubles the intensity of the flux induced by AMPA alone) (AMPA receptor) [µM]
O=C(Cc1ccccc1)Oc1ccc2c(c1)S(=O)(=O)NC1CCCN21 (stereo not drawn)	169 to 171	–
Cl.O=C(Oc1ccc2c(c1)S(=O)(=O)NC1CCCN21)c1ccncc1 (stereo not drawn)	243 to 247	–
Cl.O=C(Oc1ccc2c(c1)S(=O)(=O)NC1CCCN21)c1ccccn1 (stereo not drawn)	227 to 230	–
CC(=O)Oc1ccc2c(c1)S(=O)(=O)NC1CCCN21 (single isomer, unassigned) [Ex. 8, 5,5-Dioxo-2,3,3a,4-tetrahydro-1H-pyrrolo[2,1-c][1,2,4]benzothiadiazin-7-yl acetate, α isomer dextro]	–	20
CC(=O)Oc1ccc2c(c1)S(=O)(=O)NC1CCCN21 (single isomer, unassigned) [Ex. 9, 5,5-Dioxo-2,3,3a,4-tetrahydro-1H-pyrrolo[2,1-c][1,2,4]benzothiadiazin-7-yl acetate, β isomer levo]	–	296
O=S1(=O)NC2CCCN2c2ccc(O)cc21 (stereo not drawn) [Ex. 1, 5,5-Dioxo-2,3,3a,4-tetrahydro-1H-pyrrolo[2,1-c][1,2,4]benzothiadiazin-7-ol]	–	12
O=S1(=O)NC2CCCN2c2cc(F)c(O)cc21 (stereo not drawn) [Ex. 4, 5,5-Dioxo-8-fluoro-2,3,3a,4-tetrahydro-1H-pyrrolo[2,1-c][1,2,4]-benzothiadiazin-7-ol]	–	35
CC(=O)Oc1ccc2c(c1)S(=O)(=O)NC1CCCN21 (stereo not drawn) [Ex. 7, 5,5-Dioxo-2,3,3a,4-tetrahydro-1H-pyrrolo[2,1c][1,2,4]benzothiadiazin-7-yl acetate]	–	34
CC(C)(C)C(=O)Oc1ccc2c(c1)S(=O)(=O)NC1CCCN21 (stereo not drawn) [Ex. 10, 5,5-Dioxo-2,3,3a,4-tetrahydro-1H-pyrrolo[2,1-c][1,2,4]benzothiadiazin-7-yl pivalate]	–	14
O=C(Oc1ccc2c(c1)S(=O)(=O)NC1CCCN21)c1ccccc1 (stereo not drawn) [Ex. 11, 5,5-Dioxo-2,3,3a,4-tetrahydro-1H-pyrrolo[2,1-c][1,2,4]benzothiadiazin-7-yl benzoate]	–	5
Cc1ccc(C(=O)Oc2ccc3c(c2)S(=O)(=O)NC2CCCN32)cc1 (stereo not drawn) [Ex. 28, 5,5-Dioxo-2,3,3a,4-tetrahydro-1H-pyrrolo[2,1-c][1,2,4]-benzothiadiazin-7-yl 4-methylbenzoate]	198 to 200	3.6
O=C(Oc1ccc2c(c1)S(=O)(=O)NC1CCCN21)c1cccs1 (stereo not drawn) [Ex. 34, 5,5-Dioxo-2,3,3a,4-tetrahydro-1H-pyrrolo[2,1-c][1,2,4]-benzothiadiazin-7-yl 2-thiophenecarboxylate]	212 to 214	1.3
O=C(Oc1ccc2c(c1)S(=O)(=O)NC1CCCN21)c1ccco1 (stereo not drawn) [Ex. 36, 5,5-Dioxo-2,3,3a,4-tetrahydro-1H-pyrrolo[2,1-c][1,2,4]-benzothiadiazin-7-yl 2-furancarboxylate]	205 to 208	2.0
O=C(Oc1ccc2c(c1)S(=O)(=O)NC1CCCN21)c1cccnc1 (stereo not drawn) [Ex. 37, 5,5-Dioxo-2,3,3a,4-tetrahydro-1H-pyrrolo[2,1-c][1,2,4]-benzothiadiazin-7-yl nicotinate]	227 to 230	4.0
O=C(Oc1ccc2c(c1)S(=O)(=O)NC1CCCN21)c1ccc2ccccc2c1 (stereo not drawn) [Example 20, 5,5-Dioxo-2,3,3a,4-tetrahydro-1H-pyrrolo[2,1-c][1,2,4]-benzothiadiazin-7-yl 2-naphthalenecarboxylate]	207 to 210	–
O=C(Oc1ccc2c(c1)S(=O)(=O)NC1CCCN21)c1ccc(-c2ccccc2)cc1 (stereo not drawn) [Example 21, 5,5-Dioxo-2,3,3a,4-tetrahydro-1H-pyrrolo[2,1-c][1,2,4]-benzothiadiazin-7-yl [1,1′-biphenyl]-4-carboxylate]	249 to 253	–
O=C(C=Cc1ccccc1)Oc1ccc2c(c1)S(=O)(=O)NC1CCCN21 (stereo not drawn) [Example 23, 5,5-Dioxo-2,3,3a,4-tetrahydro-1H-pyrrolo[2,1-c][1,2,4]-benzothiadiazin-7-yl 3-phenyl-2-propenoate]	193 to 198	–
COc1ccc(C(=O)Oc2ccc3c(c2)S(=O)(=O)NC2CCCN32)cc1 (stereo not drawn) [Example 24, 5,5-Dioxo-2,3,3a,4-tetrahydro-1H-pyrrolo[2,1-c][1,2,4]-benzothiadiazin-7-yl 4-methoxybenzoate]	216 to 221	–
O=C(Oc1ccc2c(c1)S(=O)(=O)NC1CCCN21)c1cccc(Cl)c1 (stereo not drawn) [Example 26, 5,5-Dioxo-2,3,3a,4-tetrahydro-1H-pyrrolo[2,1-c][1,2,4]-benzothiadiazin-7-yl 3-chlorobenzoate]	243 to 247	–
N#Cc1ccc(C(=O)Oc2ccc3c(c2)S(=O)(=O)NC2CCCN32)cc1 (stereo not drawn) [Example 27, 5,5-Dioxo-2,3,3a,4-tetrahydro-1H-pyrrolo[2,1-c][1,2,4]-benzothiadiazin-7-yl 4-cyanobenzoate]	260 to 264	–
Cc1cccc(C(=O)Oc2ccc3c(c2)S(=O)(=O)NC2CCCN32)c1 (stereo not drawn) [Example 29, 5,5-Dioxo-2,3,3a,4-tetrahydro-1H-pyrrolo[2,1-c][1,2,4]-benzothiadiazin-7-yl 3-methylbenzoate]	214 to 218	–
Cc1ccccc1C(=O)Oc1ccc2c(c1)S(=O)(=O)NC1CCCN21 (stereo not drawn) [Example 30, 5,5-Dioxo-2,3,3a,4-tetrahydro-1H-pyrrolo[2,1-c][1,2,4]-benzothiadiazin-7-yl 2-methylbenzoate]	218 to 221	–
N#Cc1cccc(C(=O)Oc2ccc3c(c2)S(=O)(=O)NC2CCCN32)c1 (stereo not drawn) [Example 31, 5,5-Dioxo-2,3,3a,4-tetrahydro-1H-pyrrolo[2,1-c][1,2,4]-benzothiadiazin-7-yl 3-cyanobenzoate]	203 to 206	–
